Assay results taken from patent US5202310A, “Cyclosporine metabolites” (priority 1990, dated 1993).
Where “and” joins values, the source holds several entries; their conditions need not be identical. Equal entries are not always repeated. Where two headings read alike, the source gives them in different places.

Key:
rat = conditions: Ryffel 1988; cited from earlier work
L2 cells [1] = conditions: murine lung cell line L2
LLC-PK1 cells [2] = conditions: renal epithelial cell line LLC-PK1; CsA: to 1 ng/ml
[3] = test system: Renal glomerular mesangial cells; conditions: CM effects only at concentrations greater than 1 and 5 μg/ml
L2 cells [4] = conditions: murine lung cell line L2; remark: listed apart in the source
L2 cells [5] = conditions: murine lung cell line L2; remark: listed apart in the source
[6] = test system: Renal glomerular mesangial cells; conditions: CM effects only at concentrations greater than 1 and 5 μg/ml; remark: listed apart in the source
[7] = for Amount of cyclosporine per liter of bile as determined with internal standard: 100 ml bile extracted, analytical gradient HPLC with CsA internal standard; for Mean % of total concentration of cyclosporine (mean value, n = 5): bile of five CsA treated liver transplant individuals
IL2 production = conditions: Freed 1987; OL-17 followed by OL-1 and OL-21; cited from earlier work
LLC-PK1 cells [8] = conditions: renal epithelial cell line LLC-PK1
LLC-PK1 cells [9] = conditions: renal epithelial cell line LLC-PK1; 19 h + 5 h incubation
lymphocyte proliferation = conditions: Freed 1987; OL-17 followed by OL-1 and OL-21; cited from earlier work
[10] = test system: Renal glomerular mesangial cells; conditions: CsA: to 1 ng/ml, CM effects only at concentrations greater than 1 and 5 μg/ml
IL2 receptors = experiment: Effect on IL2 receptor activity (method of Freed); assay type: cell-based; conditions: compared with cyclosporine A
From the text: (§1) The effect of CM Peak H on IL1, IL2 and IL2 receptor activity was studied using the method as described in Freed, B. M., Transplantation 43:123, 1987.

IL2 = experiment: Effect on IL2 (method of Freed); assay type: cell-based; conditions: compared with cyclosporine A
From the text: as §1

phospholipase A2 = conditions: at concentrations of 1 mg/ml or greater
IL1 = experiment: Effect on IL1 (method of Freed); assay type: cell-based; conditions: compared with cyclosporine A
From the text: as §1

[11] = CM extracted from bile of liver transplant recipients, relative area by UV spectroscopy

SMILES	Inhibition of DNA synthesis (L2 cells [1])	Inhibition of protein synthesis (LLC-PK1 cells [2])	Inhibition of DNA synthesis [3]	Inhibition of protein synthesis (L2 cells [4])	Inhibition of RNA synthesis (L2 cells [5])	Inhibition of RNA synthesis [6]	Amount of cyclosporine per liter of bile as determined with internal standard [7]	Mean % of total concentration of cyclosporine (mean value, n = 5) [7]	Ability to inhibit IL2 production, compared to CsA (IL2 production)	Inhibition of RNA synthesis (LLC-PK1 cells [8])	Inhibition of DNA synthesis (LLC-PK1 cells [9])	Ability to inhibit lymphocyte proliferation in a mixed lymphocyte reaction, compared to CsA (lymphocyte proliferation)	Inhibition of protein synthesis [10]	further results
CC[C@@H]1NC(=O)[C@H]([C@H](O)[C@H](C)C/C=C/CO)N(C)C(=O)[C@H](C(C)C)N(C)C(=O)[C@H](CC(C)C)N(C)C(=O)[C@H](CC(C)C)N(C)C(=O)[C@@H](C)NC(=O)[C@H](C)NC(=O)[C@H](CC(C)C)N(C)C(=O)[C@H](C(C)C)NC(=O)[C@H](CC(C)C)N(C)C(=O)CN(C)C1=O [OL-17, 1-hydroxy cyclosporine A]	no inhibitory effects	no inhibitory effects	some inhibitory effects	no inhibitory effects	no inhibitory effects	some inhibitory effects	853 µg/L	16.00 ± 4.4% and 16%	comparable effects	no inhibitory effects	no inhibitory effects	comparable effects	some inhibitory effects	Toxicity in vivo (rat): not toxic
C/C=C/C[C@@H](C)[C@@H](O)[C@H]1C(=O)N[C@@H](CC)C(=O)N(C)CC(=O)N(C)[C@@H](CC(C)C)C(=O)N[C@@H](C(C)C)C(=O)N(C)[C@@H](CC(C)C)C(=O)N[C@@H](C)C(=O)N[C@H](C)C(=O)N(C)[C@@H](CC(C)(C)O)C(=O)N[C@@H](CC(C)C)C(=O)N(C)[C@@H](C(C)C)C(=O)N1C [CM Peak H]	no inhibitory effects	no inhibitory effects	some inhibitory effects	no inhibitory effects	no inhibitory effects	some inhibitory effects	536 µg/L	–	–	no inhibitory effects	no inhibitory effects	–	some inhibitory effects	Inhibiting formation of, and action of IL2 receptors (IL2 receptors): as effective as cyclosporine A; Inhibition of DNA synthesis ([3]; listed as Metabolite H): least inhibitory effects; Inhibiting formation of, and action of IL2 (IL2): as effective as cyclosporine A; Inhibition of phospholipase A2 activity (phospholipase A2): no such inhibitory activity; Inhibition of RNA synthesis ([6]; listed as Metabolite H): least inhibitory effects; Amount in RIA profile of bile ([7]; bile, gradient HPLC/polyclonal antibody RIA): above 250 μg/L CsA equivalents; Inhibiting formation of, and action of IL1 (IL1): as effective as cyclosporine A; Percentage of total CM ([11]; listed as H): 6.3%; Percentage of total CM ([11]; listed as peak H): 6.33%; Inhibition of protein synthesis ([10]; listed as Metabolite H): least inhibitory effects
C/C=C/C[C@@H](C)[C@@H](O)[C@H]1C(=O)N[C@@H](CC)C(=O)N(C)CC(=O)N(C)[C@@H](CC(C)C)C(=O)N[C@@H](C(C)C)C(=O)N(C)[C@@H](CC(C)C)C(=O)N[C@@H](C)C(=O)N[C@H](C)C(=O)N(C)[C@@H](CC(C)(C)O)C(=O)N(C)[C@@H](CC(C)C)C(=O)N(C)[C@@H](C(C)C)C(=O)N1C [OL-1, 9-hydroxy cyclosporine A]	no inhibitory effects	no inhibitory effects	some inhibitory effects	no inhibitory effects	no inhibitory effects	some inhibitory effects	364 µg/L	–	comparable effects	no inhibitory effects	no inhibitory effects	comparable effects	some inhibitory effects	–
CC[C@@H]1NC(=O)[C@H]([C@H](O)[C@H](C)C/C=C/CO)N(C)C(=O)[C@H](C(C)C)N(C)C(=O)[C@H](CC(C)C)N(C)C(=O)[C@H](CC(C)(C)O)N(C)C(=O)[C@@H](C)NC(=O)[C@H](C)NC(=O)[C@H](CC(C)C)N(C)C(=O)[C@H](C(C)C)NC(=O)[C@H](CC(C)C)N(C)C(=O)CN(C)C1=O [OL-8, 1,9 dihydroxy cyclosporine A]	no inhibitory effects	no inhibitory effects	some inhibitory effects	no inhibitory effects	no inhibitory effects	some inhibitory effects	640 µg/L	10.86 ± 2.4% and 11%	–	no inhibitory effects	no inhibitory effects	–	some inhibitory effects	–
